Reference: patent US11377448B2, “Crystalline sodium salt of 5-methyl-(6S)-tetrahydrofolic acid” (priority 2017, dated 2022)

Key:
[1] = purified/de-ionized water, room temperature, agitated and briefly sonicated
Experimental: The measurement of the kinetic solubility was conducted as described in the experimental part.
50 mg of crystalline sodium salt of 5-methyl-(6S)-tetrahydrofolic acid (according to Example 1) is weighed into a 4 ml glass vial with screw cap. Then 0.5 ml of purified/de-ionized water is added.
2.535 ml of purified/de-ionized water is added to the solid using an adjustable volumetric pipette. The mixture is vigorously agitated at room temperature and briefly sonicated.

[2] = Long-term stability at 25° C./60% rh, content by HPLC; conditions: for 5-methyl-(6S)-tetrahydrofolic acid (% w/w) / Pyrazino-s-triazine derivative of 4α-hydroxy-5-methyl-THF (MeFox) (% w/w) / 5-methyl-(6S)-tetrahydrofolic acid (% rel.): 25° C./60% rh; for Pyrazino-s-triazine derivative of 4α-hydroxy-5-methyl-THF (MeFox) (% w/w): major degradation product; for 5-methyl-(6S)-tetrahydrofolic acid (% rel.): relative to initial value
Experimental: (§1) Amorphous monosodium salt of 5-methyl-(6S)-tetrahydrofolic acid prepared according to Reference Example 6, crystalline calcium salt of 5-methyl-(6S)-tetrahydrofolic acid, prepared according to literature procedures (EP 1 044 975 B1) and crystalline sodium salt of 5-methyl-(6S)-tetrahydrofolic acid, prepared as disclosed in Example 1, were stored at 25° C./60% rh. The content of 5-methyl-(6S)-tetrahydrofolic acid remaining in the samples was measured by HPLC at periodic intervals (% w/w). The content of 5-methyl-(6S)-tetrahydrofolic acid remaining was also compared to the initial value at the time of preparation (% rel.). Additionally the content of the pyrazino-s-triazine derivative of 4α-hydroxy-5-methyl-THF (MeFox), a major degradation product, was measured by HPLC at periodic intervals and disclosed as absolute values (% w/w).

[3] = Long-term stability at 40° C./75% rh, content by HPLC; assay type: physicochemical; conditions: for Pyrazino-s-triazine derivative of 4α-hydroxy-5-methyl-THF (MeFox) (% w/w): major degradation product; for 5-methyl-(6S)-tetrahydrofolic acid (% rel.): relative to initial value
Experimental: as §1, with “40° C./75%” for “25° C./60%”, “sample” for “samples”

CN1c2c(nc(N)[nH]c2=O)NC[C@@H]1CNc1ccc(C(=O)N[C@@H](CCC(=O)[O-])C(=O)[O-])cc1.[Na+].[Na+] [sodium salt of 5-methyl-(6S)-tetrahydrofolic acid]
solubility (kinetic solubility) in water [1]: greater than 100 mg per 1 ml of water | 5-methyl-(6S)-tetrahydrofolic acid (% w/w) ([2]; 0 months): 82.3 % w/w | Pyrazino-s-triazine derivative of 4α-hydroxy-5-methyl-THF (MeFox) (% w/w) ([2]; 0 months): 0.07 % w/w | 5-methyl-(6S)-tetrahydrofolic acid (% rel.) ([2]; 0 months): 100.0 % rel. | 5-methyl-(6S)-tetrahydrofolic acid (% w/w) ([2]; 3 months): 80.0 % w/w | Pyrazino-s-triazine derivative of 4α-hydroxy-5-methyl-THF (MeFox) (% w/w) ([2]; 3 months): 1.01 % w/w | 5-methyl-(6S)-tetrahydrofolic acid (% rel.) ([2]; 3 months): 97.3 % rel. | 5-methyl-(6S)-tetrahydrofolic acid (% w/w) ([2]; 6 months): 78.6 % w/w | Pyrazino-s-triazine derivative of 4α-hydroxy-5-methyl-THF (MeFox) (% w/w) ([2]; 6 months): 1.31 % w/w | 5-methyl-(6S)-tetrahydrofolic acid (% rel.) ([2]; 6 months): 95.5 % rel. | 5-methyl-(6S)-tetrahydrofolic acid (% w/w) ([2]; 9 months): 74.7 % w/w | Pyrazino-s-triazine derivative of 4α-hydroxy-5-methyl-THF (MeFox) (% w/w) ([2]; 9 months): 1.42 % w/w | 5-methyl-(6S)-tetrahydrofolic acid (% rel.) ([2]; 9 months): 90.8 % rel. | stability over a long period of time compared to the crystalline calcium salt ([2]; summary of Tables 1 to 4 (25° C./60% rh and 40° C./75% rh)): comparable stability | 5-methyl-(6S)-tetrahydrofolic acid (% w/w) ([3]; 0 months): 82.3 % w/w | Pyrazino-s-triazine derivative of 4α-hydroxy-5-methyl-THF (MeFox) (% w/w) ([3]; 0 months): 0.07 % w/w | 5-methyl-(6S)-tetrahydrofolic acid (% rel.) ([3]; 0 months): 100.0 % rel. | 5-methyl-(6S)-tetrahydrofolic acid (% w/w) ([3]; 3 months): 78.6 % w/w | Pyrazino-s-triazine derivative of 4α-hydroxy-5-methyl-THF (MeFox) (% w/w) ([3]; 3 months): 1.52 % w/w | 5-methyl-(6S)-tetrahydrofolic acid (% rel.) ([3]; 3 months): 95.6 % rel. | 5-methyl-(6S)-tetrahydrofolic acid (% w/w) ([3]; 6 months): 77.3 % w/w | Pyrazino-s-triazine derivative of 4α-hydroxy-5-methyl-THF (MeFox) (% w/w) ([3]; 6 months): 1.69 % w/w | 5-methyl-(6S)-tetrahydrofolic acid (% rel.) ([3]; 6 months): 94.0 % rel. | 5-methyl-(6S)-tetrahydrofolic acid (% w/w) ([3]; 9 months): 77.9 % w/w | Pyrazino-s-triazine derivative of 4α-hydroxy-5-methyl-THF (MeFox) (% w/w) ([3]; 9 months): 1.51 % w/w | 5-methyl-(6S)-tetrahydrofolic acid (% rel.) ([3]; 9 months): 94.7 % rel.

CN1c2c(nc(N)[nH]c2=O)NC[C@@H]1CNc1ccc(C(=O)N[C@@H](CCC(=O)[O-])C(=O)O)cc1.[Na+] [5-methyl-(6S)-tetrahydrofolic acid monosodium salt]
5-methyl-(6S)-tetrahydrofolic acid (% w/w) ([2]; 0 months): 84.9 % w/w | Pyrazino-s-triazine derivative of 4α-hydroxy-5-methyl-THF (MeFox) (% w/w) ([2]; 0 months): 0.43 % w/w | 5-methyl-(6S)-tetrahydrofolic acid (% rel.) ([2]; 0 months): 100.0 % rel. | 5-methyl-(6S)-tetrahydrofolic acid (% w/w) ([2]; 3 months): 60.6 % w/w | Pyrazino-s-triazine derivative of 4α-hydroxy-5-methyl-THF (MeFox) (% w/w) ([2]; 3 months): 2.60 % w/w | 5-methyl-(6S)-tetrahydrofolic acid (% rel.) ([2]; 3 months): 71.3 % rel. | 5-methyl-(6S)-tetrahydrofolic acid (% w/w) ([2]; 6 months): 63.2 % w/w | Pyrazino-s-triazine derivative of 4α-hydroxy-5-methyl-THF (MeFox) (% w/w) ([2]; 6 months): 2.75 % w/w | 5-methyl-(6S)-tetrahydrofolic acid (% rel.) ([2]; 6 months): 74.5 % rel. | 5-methyl-(6S)-tetrahydrofolic acid (% w/w) ([3]; 0 months): 84.9 % w/w | Pyrazino-s-triazine derivative of 4α-hydroxy-5-methyl-THF (MeFox) (% w/w) ([3]; 0 months): 0.43 % w/w | 5-methyl-(6S)-tetrahydrofolic acid (% rel.) ([3]; 0 months): 100.0 % rel. | 5-methyl-(6S)-tetrahydrofolic acid (% w/w) ([3]; 3 months): 61.6 % w/w | Pyrazino-s-triazine derivative of 4α-hydroxy-5-methyl-THF (MeFox) (% w/w) ([3]; 3 months): 2.79 % w/w | 5-methyl-(6S)-tetrahydrofolic acid (% rel.) ([3]; 3 months): 72.6 % rel.

CN1c2c([nH]c(N)nc2=O)NC[C@@H]1CNc1ccc(C(=O)N[C@@H](CCC(=O)[O-])C(=O)[O-])cc1.[Ca+2] [calcium salt of 5-methyl-(6S)-tetrahydrofolic acid]
solubility (kinetic solubility) in water [1]: smaller than 10 mg per 1 ml of water | 5-methyl-(6S)-tetrahydrofolic acid (% w/w) ([2]; 0 months): 80.7 % w/w | Pyrazino-s-triazine derivative of 4α-hydroxy-5-methyl-THF (MeFox) (% w/w) ([2]; 0 months): 0.20 % w/w | 5-methyl-(6S)-tetrahydrofolic acid (% rel.) ([2]; 0 months): 100.0 % rel. | 5-methyl-(6S)-tetrahydrofolic acid (% w/w) ([2]; 3 months): 79.0 % w/w | Pyrazino-s-triazine derivative of 4α-hydroxy-5-methyl-THF (MeFox) (% w/w) ([2]; 3 months): 0.84 % w/w | 5-methyl-(6S)-tetrahydrofolic acid (% rel.) ([2]; 3 months): 97.9 % rel. | 5-methyl-(6S)-tetrahydrofolic acid (% w/w) ([2]; 6 months): 77.7 % w/w | Pyrazino-s-triazine derivative of 4α-hydroxy-5-methyl-THF (MeFox) (% w/w) ([2]; 6 months): 0.90 % w/w | 5-methyl-(6S)-tetrahydrofolic acid (% rel.) ([2]; 6 months): 96.3 % rel. | 5-methyl-(6S)-tetrahydrofolic acid (% w/w) ([2]; 9 months): 78.5 % w/w | Pyrazino-s-triazine derivative of 4α-hydroxy-5-methyl-THF (MeFox) (% w/w) ([2]; 9 months): 0.85 % w/w | 5-methyl-(6S)-tetrahydrofolic acid (% rel.) ([2]; 9 months): 97.3 % rel. | 5-methyl-(6S)-tetrahydrofolic acid (% w/w) ([2]; 12 months): 77.9 % w/w | Pyrazino-s-triazine derivative of 4α-hydroxy-5-methyl-THF (MeFox) (% w/w) ([2]; 12 months): 0.86 % w/w | 5-methyl-(6S)-tetrahydrofolic acid (% rel.) ([2]; 12 months): 96.5 % rel. | 5-methyl-(6S)-tetrahydrofolic acid (% w/w) ([3]; 0 months): 80.7 % w/w | Pyrazino-s-triazine derivative of 4α-hydroxy-5-methyl-THF (MeFox) (% w/w) ([3]; 0 months): 0.20 % w/w | 5-methyl-(6S)-tetrahydrofolic acid (% rel.) ([3]; 0 months): 100.0 % rel. | 5-methyl-(6S)-tetrahydrofolic acid (% w/w) ([3]; 3 months): 78.5 % w/w | Pyrazino-s-triazine derivative of 4α-hydroxy-5-methyl-THF (MeFox) (% w/w) ([3]; 3 months): 1.01 % w/w | 5-methyl-(6S)-tetrahydrofolic acid (% rel.) ([3]; 3 months): 97.2 % rel. | 5-methyl-(6S)-tetrahydrofolic acid (% w/w) ([3]; 6 months): 78.0 % w/w | Pyrazino-s-triazine derivative of 4α-hydroxy-5-methyl-THF (MeFox) (% w/w) ([3]; 6 months): 0.96 % w/w | 5-methyl-(6S)-tetrahydrofolic acid (% rel.) ([3]; 6 months): 96.6 % rel. | 5-methyl-(6S)-tetrahydrofolic acid (% w/w) ([3]; 9 months): 78.8 % w/w | Pyrazino-s-triazine derivative of 4α-hydroxy-5-methyl-THF (MeFox) (% w/w) ([3]; 9 months): 0.93 % w/w | 5-methyl-(6S)-tetrahydrofolic acid (% rel.) ([3]; 9 months): 97.6 % rel. | 5-methyl-(6S)-tetrahydrofolic acid (% w/w) ([3]; 12 months): 77.8 % w/w | Pyrazino-s-triazine derivative of 4α-hydroxy-5-methyl-THF (MeFox) (% w/w) ([3]; 12 months): 0.95 % w/w | 5-methyl-(6S)-tetrahydrofolic acid (% rel.) ([3]; 12 months): 96.3 % rel.
